In article PMC7173930, “EAT-18 is an essential auxiliary protein interacting with the non-alpha nAChR subunit EAT-2 to form a functional receptor” (PLoS Pathogens, 2020):

Tests used:
[1] = target: T1, Cel-EAT-2 and Cel-EAT-18c nAChR (Caenorhabditis elegans, UniProt Q9U298); test: Two-electrode voltage-clamp of Cel-EAT-2 + Cel-EAT-18c nAChR expressed in Xenopus oocytes; type: cell-based
T1 sequence (Q9U298 22-474): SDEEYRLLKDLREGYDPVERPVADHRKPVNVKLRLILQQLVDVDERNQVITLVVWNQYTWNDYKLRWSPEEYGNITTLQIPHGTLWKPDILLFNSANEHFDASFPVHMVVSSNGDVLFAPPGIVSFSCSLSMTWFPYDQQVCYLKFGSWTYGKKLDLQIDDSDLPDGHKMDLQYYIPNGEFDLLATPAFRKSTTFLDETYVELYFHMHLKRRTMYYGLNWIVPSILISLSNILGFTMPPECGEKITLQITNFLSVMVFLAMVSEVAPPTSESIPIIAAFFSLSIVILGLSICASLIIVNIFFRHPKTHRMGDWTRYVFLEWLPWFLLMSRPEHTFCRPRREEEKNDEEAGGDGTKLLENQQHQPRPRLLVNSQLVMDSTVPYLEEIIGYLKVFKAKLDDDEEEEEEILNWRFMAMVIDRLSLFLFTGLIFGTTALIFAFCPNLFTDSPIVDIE

[2] = tested on: nAChRs expressed in the pharynx of A. suum; test: tissue or blood; type: cell-based
Method: A. suum pharyngeal dissections and electrophysiology recordings were adapted from Martin [49]. Briefly, pharynx was dissected out from the head region of the worm and mounted on Sylgard (Sigma-Aldrich Inc., USA)—lined in a double jacketed bath chamber maintained at 28°C. The muscle layer surrounding the anterior 3rd of the pharynx was preserved for anchoring. The intestine attached to the posterior end of the pharynx was used for stretching and pinning down. The preparation was continuously perfused with calcium-free Ascaris Perienteric Fluid-Ringer (calcium-free APF-Ringer) composition (mM): NaCl 23, Na-acetate 110, KCl 24, MgCl2 11, glucose 11, and HEPES 5; NaOH or acetic acid was added to adjust the pH to 7.6. […] The rate of localized perfusion was 3.5–4 ml min^−1 through a 20-gauge needle, which was placed directly above the recording region of the pharynx. […] We used 3 M potassium acetate in our micropipettes to get the final resistances of 4–7 MΩ for the voltage sensing and 0.5–1 MΩ for the current injecting electrode for current-clamp recordings. The current-injecting electrode injected hyperpolarizing step currents of −1000 nA for 500 ms at 0.3 Hz.
We constructed the sigmoidal concentration-response plots by fitting the data by nonlinear regression to determine the pEC50 and the maximal response (Rmax). Extra sum of squares F-test was used to test statistical differences between pEC50, slope, and maximal response. The significance levels were set to P<0.05.
In applications containing arecoline and pilocarpine, we used mecamylamine, a nAChR antagonist (30µM) to inhibit nAChRs and to allow only mAChR activation.

[3] = target: Asu-EAT-2 nAChR (Ascaris suum, UniProt F1L9Y6); test: cell-based; type: cell-based, A. suum; conditions: read-out: current response normalized to the control 100 μM ACh current
[4] = target: T2, Cel-EAT-2 + Asu-EAT-18 + Asu-RIC-3 (Caenorhabditis elegans, UniProt Q9U298)
[5] = target: T2, Cel-EAT-2 + Asu-EAT-18 + Asu-RIC-3; test: cell-based

Chain of Asu-EAT-2 nAChR (F1L9Y6 entry or part of it): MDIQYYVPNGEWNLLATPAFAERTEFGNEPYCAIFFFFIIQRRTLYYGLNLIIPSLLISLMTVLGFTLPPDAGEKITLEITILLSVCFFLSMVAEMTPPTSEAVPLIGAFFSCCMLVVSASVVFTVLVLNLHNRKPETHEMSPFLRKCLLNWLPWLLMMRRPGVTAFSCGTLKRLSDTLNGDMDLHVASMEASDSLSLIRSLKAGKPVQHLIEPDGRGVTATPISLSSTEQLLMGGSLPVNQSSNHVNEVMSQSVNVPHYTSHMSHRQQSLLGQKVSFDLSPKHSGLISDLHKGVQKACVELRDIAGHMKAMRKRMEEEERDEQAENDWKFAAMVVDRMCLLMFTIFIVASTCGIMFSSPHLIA
Chain of Asu-EAT-2 nAChR (F1L1D9 entry or part of it, further chain): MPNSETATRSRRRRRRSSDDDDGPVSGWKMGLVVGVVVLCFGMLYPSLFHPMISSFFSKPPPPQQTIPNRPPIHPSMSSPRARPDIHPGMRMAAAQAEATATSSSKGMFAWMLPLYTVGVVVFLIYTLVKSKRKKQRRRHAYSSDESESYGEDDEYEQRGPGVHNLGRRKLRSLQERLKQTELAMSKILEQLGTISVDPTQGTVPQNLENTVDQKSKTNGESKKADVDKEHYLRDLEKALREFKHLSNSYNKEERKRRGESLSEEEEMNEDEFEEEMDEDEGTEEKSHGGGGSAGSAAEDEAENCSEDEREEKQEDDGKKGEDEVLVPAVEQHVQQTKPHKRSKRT

For CN1CCC[C@H]1c1cccnc1 [nicotine], the EC50 [1] was 63.1 µM, the “Hill slope (nH)” value [1] was 2.4±0.4 and the Imax [1] was 54.6 ± 2.6%. For the same compound, the “current response normalized to the control 100 μM ACh current (Imax)” value [1] was 55 ± 8.0%, the Emax at 100 µM ([1]; read-out: current response normalized to the control 100 μM ACh current (Imax)) was 55 ± 8% and the “Hill slope (nH)” value [2] was 1.7±0.6. It also gave a maximal response [2] of 79.3 ± 4.3 μS, an Emax ([2]; Ascaris suum, read-out: % change in membrane conductance (δG) normalized to the ACh δG) of 92 ± 6.2% and an EC50 ([2]; Ascaris suum, read-out: pEC50 (converted)) of 10 µM. It also gave an Emax [3] of 105 ± 5.7%, an Imax [4] of 96.5 ± 2.3% and an EC50 [5] of 18.7 µM.
